Source: ChEMBL document CHEMBL3046263, “Isolation, characterization, antibacterial, antihelminthic, and in silico studies of polyprenol from Kirganelia reticulata Baill” (2013)
In brackets after ≈: the same amount, converted by molar mass.

Key:
Type in all cases: functional
Escherichia coli [1] = assay: Antibacterial activity against Escherichia coli assessed as diameter of growth inhibition zone at 100 mg/ml after 24 hr by agar well diffusion method; details: read-out: DIZ
Salmonella typhi [2] = assay: Antibacterial activity against Salmonella enterica subsp. enterica serovar Typhi assessed as diameter of growth inhibition zone at 100 mg/ml after 24 hr by agar well diffusion method; details: read-out: DIZ
Staphylococcus aureus [3] = assay: Antibacterial activity against Staphylococcus aureus assessed as diameter of growth inhibition zone at 100 mg/ml after 24 hr by agar well diffusion method; details: read-out: DIZ
Escherichia coli [4] = assay: Antibacterial activity against Escherichia coli after 24 hr by microbroth dilution method
Salmonella typhi [5] = assay: Antibacterial activity against Salmonella enterica subsp. enterica serovar Typhi assessed after 24 hr by microbroth dilution method
Pseudomonas aeruginosa [6] = assay: Antibacterial activity against Pseudomonas aeruginosa after 24 hr by microbroth dilution method
Staphylococcus aureus [7] = assay: Antibacterial activity against Staphylococcus aureus after 24 hr by microbroth dilution method
Pseudomonas aeruginosa [8] = assay: Antibacterial activity against Pseudomonas aeruginosa assessed as diameter of growth inhibition zone at 100 mg/ml after 24 hr by agar well diffusion method; details: read-out: DIZ
Metaphire posthuma [9] = assay: Antihelminthic activity against Pheretima posthuma assessed as paralysis time at 150 mg/ml (reference value: 63.33 +/-0.87 min)
Metaphire posthuma [10] = assay: Antihelminthic activity against Pheretima posthuma assessed as death time at 150 mg/ml (reference value: 198.33 +/-2.61 min)
Metaphire posthuma [11] = assay: Antihelminthic activity against Pheretima posthuma assessed as death time at 200 mg/ml (reference value: 198.33 +/-2.61 min)
Metaphire posthuma [12] = assay: Antihelminthic activity against Pheretima posthuma assessed as death time at 50 mg/ml (reference value: 198.33 +/-2.61 min)
Metaphire posthuma [13] = assay: Antihelminthic activity against Pheretima posthuma assessed as paralysis time at 200 mg/ml (reference value: 63.33 +/-0.87 min)
Metaphire posthuma [14] = assay: Antihelminthic activity against Pheretima posthuma assessed as paralysis time at 50 mg/ml (reference value: 63.33 +/-0.87 min)
Metaphire posthuma [15] = assay: Antihelminthic activity against Pheretima posthuma assessed as death time at 100 mg/ml (reference value: 198.33 +/-2.61 min)
Metaphire posthuma [16] = assay: Antihelminthic activity against Pheretima posthuma assessed as paralysis time at 100 mg/ml (reference value: 63.33 +/-0.87 min)

## O=C(O)c1cn(C2CC2)c2cc(N3CCNCC3)c(F)cc2c1=O [CIPROFLOXACIN]
Escherichia coli [1]
  zone of inhibition at 100000 µg/mL: 10.2 mm
Salmonella typhi [2]
  zone of inhibition at 100000 µg/mL: 29 mm
Staphylococcus aureus [3]
  zone of inhibition at 100000 µg/mL: 18.1 mm
Escherichia coli [4]
  MBC: 12.5 µg/mL (≈ 37.7 µM)
Salmonella typhi [5]
  MBC: 6.25 µg/mL (≈ 18.9 µM)
  MIC: 3.12 µg/mL (≈ 9.43 µM)
Pseudomonas aeruginosa [6]
  MBC: 6.25 µg/mL (≈ 18.9 µM)
Staphylococcus aureus [7]
  MBC: 12.5 µg/mL (≈ 37.7 µM)
Pseudomonas aeruginosa [8]
  zone of inhibition at 100000 µg/mL: 31.8 mm

## C/C(=C/CC/C=C/CO)CC/C=C(/C)CC/C=C(\C)CO [POLYPRENOL]
Metaphire posthuma [9]
  Time: 39.63 min
Escherichia coli [1]
  zone of inhibition at 100000 µg/mL: 5.6 mm
Salmonella typhi [2]
  zone of inhibition at 100000 µg/mL: 13.1 mm
Metaphire posthuma [10]
  Time: 48.5 min
Staphylococcus aureus [3]
  zone of inhibition at 100000 µg/mL: 9.1 mm
Escherichia coli [4]
  MBC: 25 µg/mL (≈ 85.5 µM)
  MIC: 12.5 µg/mL (≈ 42.7 µM)
Metaphire posthuma [11]
  Time: 44.47 min
Salmonella typhi [5]
  MBC: 12.5 µg/mL (≈ 42.7 µM)
  MIC: 6.25 µg/mL (≈ 21.4 µM)
Metaphire posthuma [12]
  Time: 81.7 min
Metaphire posthuma [13]
  Time: 36.17 min
Metaphire posthuma [14]
  Time: 51.57 min
Metaphire posthuma [15]
  Time: 55.13 min
Pseudomonas aeruginosa [6]
  MBC: 12.5 µg/mL (≈ 42.7 µM)
  MIC: 6.25 µg/mL (≈ 21.4 µM)
Staphylococcus aureus [7]
  MBC: 25 µg/mL (≈ 85.5 µM)
  MIC: 12.5 µg/mL (≈ 42.7 µM)
Metaphire posthuma [16]
  Time: 43.37 min
Pseudomonas aeruginosa [8]
  zone of inhibition at 100000 µg/mL: 14.7 mm

## C1CNCCN1.C1CNCCN1.C1CNCCN1.O.O=C(O)CC(O)(CC(=O)O)C(=O)O.O=C(O)CC(O)(CC(=O)O)C(=O)O [PIPERAZINE CITRATE]
Metaphire posthuma [12]
  Time: 40.72 min
Metaphire posthuma [14]
  Time: 32.44 min
